Reference: patent US20260078120A1, “SUBSTITUTED PYRIDOPYRIMIDINONES” (MIRATI THERAPEUTICS, INC., priority 2022, published 2026)

Columns and labels:
[1] = tested on: T47D (PI3Kα H1047R mutant) cells; assay: CellTiter-Glo 2.0 luminescent cell viability assay, 72 hours, T47D cells; type: cell-based; conditions: Homo sapiens, T47D, 72 h, T47D (PI3Kα H1047R mutant) cells, CellTiter-Glo, approximately 72 hours; read-out: T47D (H1047R mutant) Viability IC50
How it was run: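 Viability was measured by CellTiter-Glo 2.0 luminescence after approximately 72 h of compound exposure at 37° C. Plating was 1000 cells per well the day before dosing, with ten 1:4 dilutions from a 10 µM top concentration. Values as percent of vehicle were fitted by variable-slope log(inhibitor) regression to give IC50.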

[2] = tested on: SKBR3 (PI3Kα wild type) cells; assay: CellTiter-Glo 2.0 luminescent cell viability assay, 72 hours, SKBR3 cells; type: cell-based; conditions: Homo sapiens, SK-BR-3, 72 h, SKBR3 (PI3Kα wild type) cells, CellTiter-Glo, approximately 72 hours; read-out: SKBR3 (WT) Viability IC50
How it was run: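 Viability measured via CTG luminescence following roughly 72 hours of compound exposure at 37° C. Dosing used a 10 um starting concentration diluted 1:4 over 10 points; percent-of-vehicle data fitted with a variable-slope four-parameter model for IC50.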

| SMILES | IC50 [1] [nM] | IC50 [2] [nM] |
| --- | --- | --- |
| Cc1cc([C@@H](C)Nc2ccccc2C(=O)O)c2nc(N3CCC4(CCCO4)CC3)c(C)c(=O)n2c1 [Example 11-63, (R)-2-((1-(3,7-dimethyl-4-oxo-2-(1-oxa-8-azaspiro[4.5]decan-8-yl)-4H-pyrido[1,2-a]pyrimidin-9-yl)ethyl)amino)benzoic acid] | 136 | > 10000 |
| Cc1cc([C@@H](C)Nc2ccccc2C(=O)O)c2nc(N3CCC(F)(F)[C@H](C)C3)c(C#N)c(=O)n2c1 [Example 11-64, 2-(((R)-1-(3-cyano-2-((R)-4,4-difluoro-3-methylpiperidin-1-yl)-7-methyl-4-oxo-4H-pyrido[1,2-a]pyrimidin-9-yl)ethyl)amino)benzoic acid] | 131 | > 10000 |
| Cc1cc([C@@H](C)Nc2ccccc2C(=O)O)c2nc(N3CCC(F)(F)C(C)C3)c(C)c(=O)n2c1 (stereo partly drawn) [Example 11-65, 2-(((1R)-1-(2-(4,4-difluoro-3-methylpiperidin-1-yl)-3,7-dimethyl-4-oxo-4H-pyrido[1,2-a]pyrimidin-9-yl)ethyl)amino)benzoic acid] | 146 | > 10000 |
| CO[C@@H]1CCN(c2nc3c([C@@H](C)Nc4ccccc4C(=O)O)cc(C)cn3c(=O)c2C#N)CC1(F)F [Example 11-66, 2-(((R)-1-(3-cyano-2-((R)-3,3-difluoro-4-methoxypiperidin-1-yl)-7-methyl-4-oxo-4H-pyrido[1,2-a]pyrimidin-9-yl)ethyl)amino)benzoic acid] | 231 | > 10000 |
| COC1CCN(c2nc3c([C@@H](C)Nc4ccccc4C(=O)O)cc(C)cn3c(=O)c2C#N)CC1(F)F (stereo partly drawn) [Example 11-67, 2-(((1R)-1-(3-cyano-2-(3,3-difluoro-4-methoxypiperidin-1-yl)-7-methyl-4-oxo-4H-pyrido[1,2-a]pyrimidin-9-yl)ethyl)amino)benzoic acid] | 144 | > 10000 |
| Cc1cc([C@@H](C)Nc2ccccc2C(=O)O)c2nc(N3CCC(C)(C#N)CC3)c(C#N)c(=O)n2c1 [Example 11-68, (R)-2-((1-(3-cyano-2-(4-cyano-4-methylpiperidin-1-yl)-7-methyl-4-oxo-4H-pyrido[1,2-a]pyrimidin-9-yl)ethyl)amino)benzoic acid] | 508 | > 10000 |
| Cc1cc([C@@H](C)Nc2ccccc2C(=O)O)c2nc(N3CCC(C)(C#N)CC3)c(C)c(=O)n2c1 [Example 11-69, (R)-2-((1-(2-(4-cyano-4-methylpiperidin-1-yl)-3,7-dimethyl-4-oxo-4H-pyrido[1,2-a]pyrimidin-9-yl)ethyl)amino)benzoic acid] | 168 | > 10000 |
| Cc1cc([C@@H](C)Nc2ccccc2C(=O)O)c2nc(N3CCC(C(F)(F)F)CC3)c(C#N)c(=O)n2c1 [Example 11-70, (R)-2-((1-(3-cyano-7-methyl-4-oxo-2-(4-(trifluoromethyl)piperidin-1-yl)-4H-pyrido[1,2-a]pyrimidin-9-yl)ethyl)amino)benzoic acid] | 268 | > 10000 |
| Cc1cc([C@@H](C)Nc2ccccc2C(=O)O)c2nc(N3CCC(C(F)(F)F)CC3)c(C)c(=O)n2c1 [Example 11-71, (R)-2-((1-(3,7-dimethyl-4-oxo-2-(4-(trifluoromethyl)piperidin-1-yl)-4H-pyrido[1,2-a]pyrimidin-9-yl)ethyl)amino)benzoic acid] | 387 | > 10000 |
| Cc1cc([C@@H](C)Nc2ccccc2C(=O)O)c2nc(N3CCC(C#N)CC3)c(C#N)c(=O)n2c1 [Example 11-72, (R)-2-((1-(3-cyano-2-(4-cyanopiperidin-1-yl)-7-methyl-4-oxo-4H-pyrido[1,2-a]pyrimidin-9-yl)ethyl)amino)benzoic acid] | 441 | > 10000 |
| Cc1cc([C@@H](C)Nc2ccccc2C(=O)O)c2nc(N3CCC(C#N)CC3)c(C)c(=O)n2c1 [Example 11-73, (R)-2-((1-(2-(4-cyanopiperidin-1-yl)-3,7-dimethyl-4-oxo-4H-pyrido[1,2-a]pyrimidin-9-yl)ethyl)amino)benzoic acid] | 272 | > 10000 |
| Cc1ccc(C#N)c(N2CCN(c3nc4c([C@@H](C)Nc5ccccc5C(=O)O)cc(C)cn4c(=O)c3C)[C@H](C)C2)c1 [Example 11-74, 2-(((R)-1-(2-((R)-4-(2-cyano-5-methylphenyl)-2-methylpiperazin-1-yl)-3,7-dimethyl-4-oxo-4H-pyrido[1,2-a]pyrimidin-9-yl)ethyl)amino)benzoic acid] | 1980 | > 10000 |
| Cc1ccc(C#N)c(N2CCN(c3nc4c([C@@H](C)Nc5ccccc5C(=O)O)cc(C)cn4c(=O)c3C)[C@@H](C)C2)c1 [Example 11-75, 2-(((R)-1-(2-((S)-4-(2-cyano-5-methylphenyl)-2-methylpiperazin-1-yl)-3,7-dimethyl-4-oxo-4H-pyrido[1,2-a]pyrimidin-9-yl)ethyl)amino)benzoic acid] | 1570 | > 10000 |
| Cc1cc([C@@H](C)Nc2ccccc2C(=O)O)c2nc(N3CCN(c4ccc(C(F)(F)F)cc4C#N)C[C@H]3C)c(C#N)c(=O)n2c1 [Example 11-76, 2-(((R)-1-(3-cyano-2-((R)-4-(2-cyano-4-(trifluoromethyl)phenyl)-2-methylpiperazin-1-yl)-7-methyl-4-oxo-4H-pyrido[1,2-a]pyrimidin-9-yl)ethyl)amino)benzoic acid] | 340 | > 10000 |
| Cc1cc([C@@H](C)Nc2ccccc2C(=O)O)c2nc(N3CCN(c4ccc(C(F)(F)F)cc4C#N)C[C@@H]3C)c(C#N)c(=O)n2c1 [Example 11-77, 2-(((R)-1-(3-cyano-2-((S)-4-(2-cyano-4-(trifluoromethyl)phenyl)-2-methylpiperazin-1-yl)-7-methyl-4-oxo-4H-pyrido[1,2-a]pyrimidin-9-yl)ethyl)amino)benzoic acid] | 552 | > 10000 |
| Cc1cc([C@@H](C)Nc2ccccc2C(=O)O)c2nc(N3CCN(c4ccc(C(F)(F)F)cc4C#N)CC3C)c(C#N)c(=O)n2c1 (stereo partly drawn) [Example 11-78, 2-(((1R)-1-(3-cyano-2-(4-(2-cyano-4-(trifluoromethyl)phenyl)-2-methylpiperazin-1-yl)-7-methyl-4-oxo-4H-pyrido[1,2-a]pyrimidin-9-yl)ethyl)amino)benzoic acid] | 256 | > 10000 |
| Cc1cc([C@@H](C)Nc2ccccc2C(=O)O)c2nc(N3CCN(c4ccc(C(F)(F)F)cc4C#N)C[C@H]3C)c(C)c(=O)n2c1 [Example 11-79, 2-(((R)-1-(2-((R)-4-(2-cyano-4-(trifluoromethyl)phenyl)-2-methylpiperazin-1-yl)-3,7-dimethyl-4-oxo-4H-pyrido[1,2-a]pyrimidin-9-yl)ethyl)amino)benzoic acid] | 187 | 4550 |
| Cc1cc([C@@H](C)Nc2ccccc2C(=O)O)c2nc(N3CCN(c4ccc(C(F)(F)F)cc4C#N)C[C@@H]3C)c(C)c(=O)n2c1 [Example 11-80, 2-(((R)-1-(2-((S)-4-(2-cyano-4-(trifluoromethyl)phenyl)-2-methylpiperazin-1-yl)-3,7-dimethyl-4-oxo-4H-pyrido[1,2-a]pyrimidin-9-yl)ethyl)amino)benzoic acid] | 330 | > 10000 |
| Cc1cc([C@@H](C)Nc2ccccc2C(=O)O)c2nc(N3CCN(c4ccc(C(F)(F)F)cc4C#N)CC3C)c(C)c(=O)n2c1 (stereo partly drawn) [Example 11-81, 2-(((1R)-1-(2-(4-(2-cyano-4-(trifluoromethyl)phenyl)-2-methylpiperazin-1-yl)-3,7-dimethyl-4-oxo-4H-pyrido[1,2-a]pyrimidin-9-yl)ethyl)amino)benzoic acid] | 579 | > 10000 |
| Cc1cc([C@@H](C)Nc2ccccc2C(=O)O)c2nc(N3CCN(c4ccccc4C#N)C[C@@H]3C)c(C)c(=O)n2c1 [Example 11-82, 2-(((R)-1-(2-((S)-4-(2-cyanophenyl)-2-methylpiperazin-1-yl)-3,7-dimethyl-4-oxo-4H-pyrido[1,2-a]pyrimidin-9-yl)ethyl)amino)benzoic acid] | 303 | > 10000 |
| Cc1cc([C@@H](C)Nc2ccccc2C(=O)O)c2nc(N3CCN(c4ccccc4C#N)C[C@H]3C)c(C)c(=O)n2c1 [Example 11-83, 2-(((R)-1-(2-((R)-4-(2-cyanophenyl)-2-methylpiperazin-1-yl)-3,7-dimethyl-4-oxo-4H-pyrido[1,2-a]pyrimidin-9-yl)ethyl)amino)benzoic acid] | 157 | > 10000 |
| Cc1cc([C@@H](C)Nc2ccccc2C(=O)O)c2nc(N3CCN(c4cccc(C#N)c4)C[C@H]3C)c(C#N)c(=O)n2c1 [Example 11-84, 2-(((R)-1-(3-cyano-2-((R)-4-(3-cyanophenyl)-2-methylpiperazin-1-yl)-7-methyl-4-oxo-4H-pyrido[1,2-a]pyrimidin-9-yl)ethyl)amino)benzoic acid] | 139 | 952 |
| Cc1cc([C@@H](C)Nc2ccccc2C(=O)O)c2nc(N3CCN(c4cccc(C#N)c4)C[C@@H]3C)c(C#N)c(=O)n2c1 [Example 11-85, 2-(((R)-1-(3-cyano-2-((S)-4-(3-cyanophenyl)-2-methylpiperazin-1-yl)-7-methyl-4-oxo-4H-pyrido[1,2-a]pyrimidin-9-yl)ethyl)amino)benzoic acid] | 404 | > 10000 |
| Cc1cc([C@@H](C)Nc2ccccc2C(=O)O)c2nc(N3CCN(c4cccc(C#N)c4)C[C@@H]3C)c(C)c(=O)n2c1 [Example 11-86, 2-(((R)-1-(2-((S)-4-(3-cyanophenyl)-2-methylpiperazin-1-yl)-3,7-dimethyl-4-oxo-4H-pyrido[1,2-a]pyrimidin-9-yl)ethyl)amino)benzoic acid] | 146 | > 10000 |
